Values after ≈ are worked out from the molar mass of the structure shown. Blank lines part the entries; values can stand above or below the molecule they belong to.
Assays:
[1] = Solubility in aqueous solutions (Table 3); type: physicochemical; settings: aqueous solution
Protocol: The skilled person understands that the pH of the gastrointestinal tract changes along its length. […] For more detail see, for example, Measurement of gastrointestinal pH profiles in normal ambulant human subjects, Gut. […] Improved solubility is expected to result in improved absorption, and therefore improved oral bioavailability.
In an embodiment prodrugs of the invention are administered intravenously. High prodrug solubility is advantageous in order to reduce the volume of solution administered to the patient, and to reduce the risk of damage to the circulatory system. Solubility of >10 mg/mL is preferred.

hERG K+ channel = molecular target: T1, hERG K+ channel (Homo sapiens, UniProt Q12809); experiment: hERG assay, IonWorks patch clamp electrophysiology; type: cell-based; settings: human, pH 7.3; 11 uM; Chinese Hamster Lung cell line stably expressing hERG
T1 construct: a Chinese Hamster Lung cell line stably expressing the full length hERG channel; expressed in transfected cells; host or cells: Chinese Hamster Lung cell line
Protocol: Compounds of the invention were tested for inhibition of the human ether a go-go related gene (hERG) K^+ channel using IonWorks patch clamp electrophysiology. 8 Point concentration-response curves were generated on two occasions using 3-fold serial dilutions from the maximum assay concentration (33 uM). Electrophysiological recordings were made from a Chinese Hamster Lung cell line stably expressing the full length hERG channel. Single cell ion currents were measured in the perforated patch clamp configuration (100 ug/mL amphoterocin) at room temperature using an IonWorks Quattro instrument. The internal solution contained 140 mM KCl, 1 mM MgCl2, 1 mM EGTA and 20 mM HEPES and was buffered to pH 7.3. The external solution contained 138 mM NaCl, 2.7 mM KCl, 0.9 mM CaCl2, 0.5 mM MgCl2, 8 mM Na2HPO4 and 1.5 mM KH2PO4, and was buffered to pH 7.3. Cells were clamped at a holding potential of […] for 30 s and then stepped to +40 mV for 1 s. This was followed by a hyperpolarising step of 1 s to […] to evoke the hERG tail current. This sequence was repeated 5 times at a frequency of 0.25 Hz. Currents were measured from the tail step at the 5th pulse, and referenced to the holding current. Compounds were incubated for 6-7 min prior to a second measurement of the hERG signal using an identical pulse train. A minimum of 17 cells were required for each pIC50 curve fit. A control compound (quinidine) was used.

[2] = Pharmacokinetics: exposure of tonabersat in plasma after oral or intravenous dosing of prodrugs to rats; type: in vivo; settings: fasted male Sprague Dawley rats; for % exposure of tonabersat after dosing the prodrugs of the invention via: Intravenous dosing (iv): compared to equimolar amount of tonabersat (0.78 mg/kg intravenous dosing); for % exposure of tonabersat after dosing the prodrugs of the invention via: Oral dosing (po): compared to equimolar amount of tonabersat (5.00 mg/kg oral dosing)
Protocol: Example Prodrugs of the claimed invention were dosed either intravenously or orally to fasted male Sprague Dawley rats. The rats underwent surgery for jugular vein cannulation 48 h prior to dosing. Following dosing, 0.25 mL blood samples were taken via the cannulae at 0, 5, 10, 20, 30, 45, 60, 120, 240 & 360 min in EDTA coated tubes. Tubes were spun at 13,000 rpm for 4 min and 100 ul of supernatant taken immediately and stored at −80° C. prior to analysis. Plasma samples were analysed by LC-MS/MS following extraction by protein precipitation, and levels of parent prodrug and tonabersat were measured by MRM (Multiple Reaction Monitoring) analysis against an extracted calibration curve of plasma samples spiked with the Example prodrug and tonabersat.
The exposure of tonabersat in plasma following dosing of the prodrugs of the invention was compared directly to the exposure observed following dosing of an equimolar amount of tonabersat under analogous assay conditions (5.00 mg/kg oral dosing or 0.78 mg/kg intravenous dosing). In an embodiment prodrugs of the present invention have >10% exposure of tonabersat obtained following either oral or intravenous dosing of the prodrug to a human or animal subject, compared to the exposure obtained from dosing an equimolar amount of tonabersat itself. In an embodiment the exposure of tonabersat following dosing of the prodrugs is >20%, or >30%, or >40%, or >50%, or preferably >70% compared to the exposure obtained from dosing an equimolar amount of tonabersat itself.

T1 sequence (Q12809 whole entry): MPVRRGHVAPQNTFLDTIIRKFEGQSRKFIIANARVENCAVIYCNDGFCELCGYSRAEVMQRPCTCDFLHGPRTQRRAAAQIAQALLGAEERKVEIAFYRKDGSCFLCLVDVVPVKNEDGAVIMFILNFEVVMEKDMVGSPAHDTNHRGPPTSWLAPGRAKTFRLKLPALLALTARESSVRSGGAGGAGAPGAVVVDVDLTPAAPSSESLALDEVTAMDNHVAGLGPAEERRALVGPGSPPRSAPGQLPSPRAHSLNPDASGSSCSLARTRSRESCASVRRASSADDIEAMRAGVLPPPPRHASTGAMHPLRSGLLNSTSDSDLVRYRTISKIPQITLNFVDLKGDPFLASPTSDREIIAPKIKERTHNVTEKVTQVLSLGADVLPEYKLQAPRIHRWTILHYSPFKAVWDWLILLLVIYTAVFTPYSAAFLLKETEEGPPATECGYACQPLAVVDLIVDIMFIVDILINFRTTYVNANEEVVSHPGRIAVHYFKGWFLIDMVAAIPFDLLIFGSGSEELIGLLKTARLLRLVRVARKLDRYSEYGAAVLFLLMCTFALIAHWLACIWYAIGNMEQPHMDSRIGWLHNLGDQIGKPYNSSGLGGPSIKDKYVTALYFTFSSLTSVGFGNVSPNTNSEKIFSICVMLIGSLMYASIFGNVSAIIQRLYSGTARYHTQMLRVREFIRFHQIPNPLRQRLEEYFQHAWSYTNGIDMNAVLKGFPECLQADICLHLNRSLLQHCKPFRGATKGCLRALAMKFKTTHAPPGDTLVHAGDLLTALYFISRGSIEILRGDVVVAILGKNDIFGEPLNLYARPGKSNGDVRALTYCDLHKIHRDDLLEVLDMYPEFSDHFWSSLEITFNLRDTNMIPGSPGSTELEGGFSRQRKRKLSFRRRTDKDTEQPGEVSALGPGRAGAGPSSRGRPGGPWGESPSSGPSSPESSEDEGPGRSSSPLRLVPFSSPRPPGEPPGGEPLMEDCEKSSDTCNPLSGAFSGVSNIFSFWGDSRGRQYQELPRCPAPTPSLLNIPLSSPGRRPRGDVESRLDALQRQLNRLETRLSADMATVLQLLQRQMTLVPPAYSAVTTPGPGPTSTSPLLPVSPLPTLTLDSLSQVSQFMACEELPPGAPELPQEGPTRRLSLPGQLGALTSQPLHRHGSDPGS

- solubility ([1]; pH 5.6, aqueous buffer): > 10000 µg/mL
Compound: CC(=O)c1ccc2c(c1)[C@H](NC(=O)c1ccc(F)c(Cl)c1)[C@H](OC(=O)[C@H](C)NC(=O)[C@@H](N)C(C)C)C(C)(C)O2.Cl [Example 20, (3S,4S)-6-Acetyl-4-[(3-chloro-4-fluorobenzene)amido]-2,2-dimethyl-3,4-dihydro-2H-1-benzopyran-3-yl (2S)-2-[(2S)-2-amino-3-methylbutanamido]propanoate hydrochloride]

- solubility ([1]; pH 5.7, aqueous buffer): 1000 µg/mL
Compound: CC(=O)c1ccc2c(c1)[C@H](NC(=O)c1ccc(F)c(Cl)c1)[C@H](OC(=O)CCCN1CCOCC1)C(C)(C)O2.Cl [Example 17, (3S,4S)-6-Acetyl-4-[(3-chloro-4-fluorobenzene)amido]-2,2-dimethyl-3,4-dihydro-2H-1-benzopyran-3-yl 4-(morpholin-4-yl)butanoate hydrochloride]
- inhibition at 11 µM (hERG K+ channel): 27%

- solubility ([1]; aqueous buffer, pH not given): < 1000 µg/mL
- % exposure of tonabersat after dosing the prodrugs of the invention via: Intravenous dosing (iv) [2]: <LLOQ
- % exposure of tonabersat after dosing the prodrugs of the invention via: Oral dosing (po) [2]: <LLOQ
Compound: CC(=O)c1ccc2c(c1)[C@H](NC(=O)c1ccc(F)c(Cl)c1)[C@H](OC(=O)N[C@H](C(=O)O)C(C)C)C(C)(C)O2 [Example 8, (2S)-2-[({[(3S,4S)-6-Acetyl-4-[(3-chloro-4-fluorobenzene)amido]-2,2-dimethyl-3,4-dihydro-2H-1-benzopyran-3-yl]oxy}carbonyl)amino]-3-methylbutanoic acid]

- solubility ([1]; pH 4.5, aqueous buffer): > 10000 µg/mL
Compound: CC(=O)c1ccc2c(c1)[C@H](NC(=O)c1ccc(F)c(Cl)c1)[C@H](OC(=O)[C@@H](NC(=O)[C@@H](N)C(C)C)C(C)C)C(C)(C)O2.Cl [Example 15, (3S,4S)-6-Acetyl-4-[(3-chloro-4-fluorobenzene)amido]-2,2-dimethyl-3,4-dihydro-2H-1-benzopyran-3-yl (2S)-2-[(2S)-2-amino-3-methylbutanamido]-3-methylbutanoate hydrochloride]
- inhibition at 11 µM (hERG K+ channel): 21%

- solubility ([1]; pH 5.3, aqueous buffer): > 10000 µg/mL
Compound: CC(=O)c1ccc2c(c1)[C@H](NC(=O)c1ccc(F)c(Cl)c1)[C@H](OC(=O)[C@H](C)N(C)C(=O)[C@@H](N)C(C)C)C(C)(C)O2.Cl [Example 29, 6-Acetyl-4-[(3-chloro-4-fluorobenzene)amido]-2,2-dimethyl-3,4-dihydro-2H-1-benzopyran-3-yl (2S)-2-[(2S)-2-amino-N,3-dimethylbutanamido]propanoate hydrochloride]

- solubility ([1]; pH 5.5, aqueous buffer): > 10000 µg/mL
Compound: CC(=O)c1ccc2c(c1)[C@H](NC(=O)c1ccc(F)c(Cl)c1)[C@H](OC(=O)CNC(=O)[C@@H](N)C(C)C)C(C)(C)O2.Cl [Example 14, (3S,4S)-6-Acetyl-4-[(3-chloro-4-fluorobenzene)amido]-2,2-dimethyl-3,4-dihydro-2H-1-benzopyran-3-yl 2-[(2S)-2-amino-3-methylbutanamido]acetate hydrochloride]
- inhibition at 11 µM (hERG K+ channel): 14%

- solubility ([1]; aqueous buffer, pH not given): < 1000 µg/mL
Compound: CC(=O)c1ccc2c(c1)[C@H](NC(=O)c1ccc(F)c(Cl)c1)[C@H](OC(=O)OCC[N+](C)(C)C)C(C)(C)O2.[I-] [Example 2, (3S,4S)-6-Acetyl-4-[(3-chloro-4-fluorobenzene)amido]-2,2-dimethyl-3,4-dihydro-2H-1-benzopyran-3-yl 2-(trimethylazaniumyl)ethyl carbonate iodide]

- solubility ([1]; aqueous buffer, pH 5.0): > 10000 µg/mL
Compound: CC[C@H](C)[C@H](N)C(=O)NCC(=O)O[C@H]1[C@@H](NC(=O)c2ccc(F)c(Cl)c2)c2cc(C(C)=O)ccc2OC1(C)C.Cl [Example 13, (3S,4S)-6-Acetyl-4-[(3-chloro-4-fluorobenzene)amido]-2,2-dimethyl-3,4-dihydro-2H-1-benzopyran-3-yl 2-[(2S,3S)-2-amino-3-methylpentanamido]acetate hydrochloride]
- inhibition at 11 µM (hERG K+ channel): 2%

- solubility ([1]; aqueous buffer, pH 5.0): > 10000 µg/mL
Compound: CC(=O)c1ccc2c(c1)[C@H](NC(=O)c1ccc(F)c(Cl)c1)[C@H](OC(=O)CNC(=O)[C@@H](N)CC(C)C)C(C)(C)O2.Cl [Example 11, (3S,4S)-6-Acetyl-4-[(3-chloro-4-fluorobenzene)amido]-2,2-dimethyl-3,4-dihydro-2H-1-benzopyran-3-yl 2-[(2S)-2-amino-4-methylpentanamido]acetate hydrochloride]
- inhibition at 11 µM (hERG K+ channel): 34%

- solubility ([1]; pH 5.2, aqueous buffer): > 10000 µg/mL
Compound: CC(=O)c1ccc2c(c1)[C@H](NC(=O)c1ccc(F)c(Cl)c1)[C@H](OC(=O)[C@H](C)NC(=O)[C@@H](N)CC(C)C)C(C)(C)O2.Cl [Example 21, 6-Acetyl-4-[(3-chloro-4-fluorobenzene)amido]-2,2-dimethyl-3,4-dihydro-2H-1-benzopyran-3-yl (2S)-2-[(2S)-2-amino-4-methylpentanamido]propanoate hydrochloride]

- solubility ([1]; aqueous buffer, pH not given): < 1000 µg/mL
Compound: CCN(CC)CCOC(=O)O[C@H]1[C@@H](NC(=O)c2ccc(F)c(Cl)c2)c2cc(C(C)=O)ccc2OC1(C)C [Example 3, (3S,4S)-6-Acetyl-4-[(3-chloro-4-fluorobenzene)amido]-2,2-dimethyl-3,4-dihydro-2H-1-benzopyran-3-yl 2-(diethylamino)ethyl carbonate]
- inhibition at 11 µM (hERG K+ channel): 20%

- solubility ([1]; pH 5.1, aqueous buffer): > 10000 µg/mL
Compound: CC(=O)c1ccc2c(c1)[C@H](NC(=O)c1ccc(F)c(Cl)c1)[C@H](OC(=O)CNC(=O)CN)C(C)(C)O2.Cl [Example 12, (3S,4S)-6-Acetyl-4-[(3-chloro-4-fluorobenzene)amido]-2,2-dimethyl-3,4-dihydro-2H-1-benzopyran-3-yl 2-(2-aminoacetamido)acetate hydrochloride]
- inhibition at 11 µM (hERG K+ channel): 43%

- solubility ([1]; pH 8.8, aqueous buffer): < 1000 µg/mL
Compound: CC(=O)c1ccc2c(c1)[C@H](NC(=O)c1ccc(F)c(Cl)c1)[C@H](OC(=O)NCC(=O)O)C(C)(C)O2 [Example 7, 2-[({[(3S,4S)-6-Acetyl-4-[(3-chloro-4-fluorobenzene)amido]-2,2-dimethyl-3,4-dihydro-2H-1-benzopyran-3-yl]oxy}carbonyl)amino]acetic acid]

- solubility ([1]; pH 4.2, aqueous buffer): 500 µg/mL (≈ 916 µM)
Compound: CC(=O)c1ccc2c(c1)[C@H](NC(=O)c1ccc(F)c(Cl)c1)[C@H](OC(=O)CNC(=O)[C@@H]1CCCN1)C(C)(C)O2 [Example 10, (3S,4S)-6-Acetyl-4-[(3-chloro-4-fluorobenzene)amido]-2,2-dimethyl-3,4-dihydro-2H-1-benzopyran-3-yl 2-[(2S)-pyrrolidin-2-ylformamido]acetate]
- inhibition at 11 µM (hERG K+ channel): 32%

Compound: CC(=O)c1ccc2c(c1)[C@H](NC(=O)c1ccc(F)c(Cl)c1)[C@H](OC(=O)OC[C@H](N)C(=O)O)C(C)(C)O2.Cl [Example 5, (2S)-3-[({[(3S,4S)-6-Acetyl-4-[(3-chloro-4-fluorobenzene)amido]-2,2-dimethyl-3,4-dihydro-2H-1-benzopyran-3-yl]oxy}carbonyl)oxy]-2-aminopropanoic acid hydrochloride]
- % exposure of tonabersat after dosing the prodrugs of the invention via: Intravenous dosing (iv) [2]: 37%
- % exposure of tonabersat after dosing the prodrugs of the invention via: Oral dosing (po) [2]: 39%

- solubility ([1]; pH 4.4, aqueous buffer): 1000 µg/mL
Compound: CC(=O)c1ccc2c(c1)[C@H](NC(=O)c1ccc(F)c(Cl)c1)[C@H](OC(=O)[C@@H](NC(=O)CN)C(C)C)C(C)(C)O2.Cl [Example 16, (3S,4S)-6-Acetyl-4-[(3-chloro-4-fluorobenzene)amido]-2,2-dimethyl-3,4-dihydro-2H-1-benzopyran-3-yl (2S)-2-(2-aminoacetamido)-3-methylbutanoate hydrochloride]

Reference: patent US20160016929A1, “PRO-DRUG COMPOUNDS” (PROXIMAGEN LIMITED, priority 2013, published 2016)
